We go through 3 molecules from US20230302014A1, “USES OF GLUCOCORTICOID RECEPTOR (GR) ANTAGONIST AND ANDROGEN RECEPTOR (AR) DEGRADER COMBINATIONS” (ORIC Pharmaceuticals, Inc., priority 2020, published 2023).

For one experiment, the target named is T1, GR (Homo sapiens, UniProt P04150).
T1 sequence (P04150 1-777): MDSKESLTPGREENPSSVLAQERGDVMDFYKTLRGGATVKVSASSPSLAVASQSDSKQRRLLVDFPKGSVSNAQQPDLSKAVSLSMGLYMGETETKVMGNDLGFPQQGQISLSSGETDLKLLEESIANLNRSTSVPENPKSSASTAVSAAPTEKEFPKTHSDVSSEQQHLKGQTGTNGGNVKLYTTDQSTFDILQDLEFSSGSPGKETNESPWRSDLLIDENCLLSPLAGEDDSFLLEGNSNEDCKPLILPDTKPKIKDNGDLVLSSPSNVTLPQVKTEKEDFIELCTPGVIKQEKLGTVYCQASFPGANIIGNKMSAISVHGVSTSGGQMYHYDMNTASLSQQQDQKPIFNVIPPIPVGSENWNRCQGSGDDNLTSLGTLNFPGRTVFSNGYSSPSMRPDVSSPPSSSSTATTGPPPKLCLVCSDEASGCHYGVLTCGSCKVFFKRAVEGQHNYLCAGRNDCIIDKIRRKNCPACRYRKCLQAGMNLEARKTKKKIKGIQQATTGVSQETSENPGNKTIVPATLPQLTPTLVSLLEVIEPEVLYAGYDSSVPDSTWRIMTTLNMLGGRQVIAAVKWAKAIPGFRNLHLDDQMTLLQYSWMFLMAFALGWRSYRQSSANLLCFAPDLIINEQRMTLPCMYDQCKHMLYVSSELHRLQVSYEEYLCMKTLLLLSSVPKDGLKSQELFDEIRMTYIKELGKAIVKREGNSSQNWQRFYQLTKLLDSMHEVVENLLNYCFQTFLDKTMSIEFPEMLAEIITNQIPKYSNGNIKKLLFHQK
The settings on record: prostate cancer models with GR upregulated, in response to glucocorticoids; Zhou et al. 2019; cited from earlier work.

Experiment [1] deals with AR and/or GR target genes KLK4, KLF9, FKBP5, PER1, SGK1. Put plainly: Biomarker analysis by RT-qPCR, 48 hours. The format is cell-based, Human. The conditions noted are these: CWR22PC and 22Rv1 cells. The procedure:
CWR22PC and 22RV1 cells were seeded at a density of 2 × 10^5 cells/well in 6-well plates in 2 mL of RPMI-1640 media supplemented with 10% charcoal-stripped serum (CSS). Cells were treated with 100 pM R1881, 30 nM dexamethasone, 0.5 µM compound 1, 1 µM of ARD1 or ARD2, or combinations thereof as indicated and maintained at 37° C. 48 hours later, media was removed, and cells were washed once with PBS and then harvested for mRNA analysis.
(§1) Adherent cells or cell pellets harvested for mRNA analysis were first washed once with PBS and then resuspended in 600 µL of RLT lysis buffer (Qiagen Inc.) supplemented with 1% of betamercaptoethanol. RNA was extracted by QIAcube using the RNeasy Mini QIAcube kit (Qiagen#74116) according to manufacturer’s instructions. The extracted RNA samples were then quantified using a Nanodrop 8000 Spectrophotometer. RT-qPCR reactions were set up in triplicate using 3 µL of 3 ng/ µL of RNA in 7 µL of pre-mixed SensiFAST™ SYBR No-ROX One-Step Kit reagents (BIOLINE# BIO-98005). The RT-qPCR reactions were run on a Bio-Rad CFX384 Real-Time PCR System and data was plotted with GraphPad Prism 8 software.
CWR22PC and 22Rv1 cells were seeded at a density of 2 × 10^5 cells/well in 6-well plates in 2 mL of RPMI-1640 media supplemented with 10% charcoal-stripped serum (CSS). […] 48 hours later, media was removed, and cells were washed once with PBS and then harvested for mRNA analysis.

For experiment [2], the system named is AR and GR target genes in CWR22PC cells. Put plainly: End of study (EOS) biomarker analysis by RT-qPCR. The format is cell-based, Human. The conditions noted are these: CSS media, + 0.5 µM compound 1. The procedure:
(§2) CWR22PC cells were seeded at a density of 2 × 10^5 cells/well in 6-well plates (Corning# 3516) in 2 mL of RPMI-1640 media supplemented with 10% charcoal-stripped serum (CSS) in duplicate. 24 hours later, cells were treated with 100 pM R1881, 30 nM dexamethasone, 0.5 µM compound 1, 1 µM of ARD1 or ARD2, or combinations thereof as indicated. Fresh media containing the indicated treatment was replaced every 5-7 days. Cell supernatant was collected on Day 12 and 19 and stored at -80° C. for PSA AlphaLISA assay. Cell images were taken on Day 12 and 19 using Leica DMi8 microscope (LEICA MICROSYSTEMS, INC. IL) with a 10X magnification. Cells were then trypsinized and cell numbers in each treatment group were counted three times, average counts were plotted with GraphPad Prism 8. Cell pellets were washed once with 1XPBS and then lysed in 600 µL RLT RNA lysis buffer and stored at -80° C. RNA was extracted for end of study (EOS) biomarker analysis for which the detailed procedures are described in the section RNA Extraction and RT-qPCR analysis.
as §1
CWR22PC cells were seeded at a density of 2 × 10^5 cells/well in 6-well plates (Corning# 3516) in 2 mL of RPMI-1640 media supplemented with 10% charcoal-stripped serum (CSS) in duplicate. […] Cells were then trypsinized and cell numbers in each treatment group were counted three times, average counts were plotted with GraphPad Prism 8. […]

The subject of the next experiment is PSA. The experiment is described as follows: PSA AlphaLISA assay of cell supernatant (PSA secretion). The class given is cell-based, Human. The settings on record: CSS media; for R1881-induced PSA secretion: CWR22PC, + 0.5 µM compound 1. A general note: Alpha assays give light when donor and acceptor beads are brought close together.
For a further experiment, the system named is CWR22PC cells. The experiment is described as follows: Cell growth (cell number) of prostate cancer cells under long-term treatment. The settings on record: CSS media; for R1881-induced cell growth: CWR22PC, + 0.5 µM compound 1. The format is cell-based, Human. The procedure:
as §2
The impact of ARD1 and ARD2 on the growth of prostate cancer cells was explored. CWR22PC cells were plated in charcoal-stripped serum (CSS) media and treated with vehicle or 0.1 nM R1881 (synthetic AR ligand) without or with 1 µM of ARD1 or ARD2. Media with treatments were replaced every 5-7 days and cells were maintained at 37° C. for 22 days. Supernatant of each group was harvested at day 22 to measure PSA secretion by PSA AlphaLISA assays.
as §2, with “24 hours later, cells were treated with 100 pM R1881, 30 nM dexamethasone, 0.5 µM compound 1, 1 µM of ARD1 or ARD2, or combinations thereof as indicated.” left out, “15” for “12”, “21” for “19”, “assay.” for “assay. Cell images were taken on Day 12 and 19 using Leica DMi8 microscope (LEICA MICROSYSTEMS, INC. IL) with a 10X magnification.”

Experiment [3] concerns AR target genes KLK3, KLK4, NKX3.1, FKBP5. Put plainly: Target gene assay (RT-qPCR, R1881-induced AR target genes). The class given is cell-based, Human. The settings on record: 100 pM R1881, 24 hours post treatment. The procedure: (§3) 10,000 LNCaP and CWR22PC cells per well were plated in triplicate in poly-lysine coated 96-well plates (ThermoFisher#152039) in 200 µL of RPMI-1640 media supplemented with 10% charcoal-stripped serum. 24 hours later, cells were treated with 100 pM of R1881 and 8-point dilution for enzalutamide, ARD1 or ARD2 with concentrations ranging from 1 µM to 0.46 nM. After incubation at 37° C. for 24 hours, media was removed, and cells were washed once with PBS. 55 µL per well of iScript RT-qPCR sample preparation reagent (Bio-Rad #1708898) was added and incubated for 2 minutes before lysate was collected for mRNA analysis. RT-qPCR was set up in triplicate using 3 µL of lysate plus 7 µL of pre-mixed SensiFAST™ SYBR No-ROX One-Step Kit reagents (BIOLINE, Cat# BIO-98005) per reaction. The RT-qPCR reactions were run on a Bio-Rad CFX384 Real-Time PCR System and data was plotted with GraphPad Prism 8 software.
as §3, with “15,000” for “10,000”, “24 hours later, cells were treated with 100 pM of R1881 and 8-point dilution for enzalutamide, ARD1 or ARD2 with concentrations ranging from 1 µM to 0.46 nM.” left out, “75” for “55”

[4] abbreviates: 19 days, 0.1 nM R1881 + 1 µM ARD1 or ARD2, + 30 nM dexamethasone.
The mark [5] stands for this setting: 21 days, 0.1 nM R1881 + 1 µM ARV-110, + 30 nM dexamethasone.

Regarding `CC(C)N(C)c1ccc([C@H]2C[C@@]3(C)[C@@H](CC[C@@]3(O)C#CC(C)(C)C)[C@@H]3CCC4=CC(=O)CC[C@@H]4[C@H]32)cc1` [Compound 1], at GR, the “sensitivity to enzalutamide treatment” value is “restores sensitivity to enzalutamide treatment”. Also, the “DEX-induced GR and AR target gene expression” value in experiment [1] (0.5 µM compound 1 in the presence of 1 µM ARD1 or ARD2, 0.1 nM R1881, 30 nM DEX) was “fully reverses”; in experiment [1] (0.5 µM compound 1 in the presence of 1 µM ARV-110, 0.1 nM R1881, 30 nM DEX) it was “fully reverses”. For the same molecule, the “R1881-induced target gene (biomarker) expression” value in experiment [2] (day 19 EOS, 0.1 nM R1881 + 1 µM ARD1 or ARD2, + 30 nM dexamethasone) is recorded as “fully reverses”; in experiment [2] (day 21 EOS, 0.1 nM R1881 + 1 µM ARV-110, + 30 nM dexamethasone), “fully reverses”. Moreover, the “R1881-induced PSA secretion” value with PSA (setting [4]) and in the experiment with PSA (setting [5]) was “fully reverses” throughout. The R1881-induced cell growth result in the experiment with CWR22PC cells (setting [4]) and in the experiment with CWR22PC cells (setting [5]) was “fully reverses” throughout.

Turning to `CNC(=O)c1ccc(N2C(=S)N(c3ccc(C#N)c(C(F)(F)F)c3)C(=O)C2(C)C)cc1F` [Enzalutamide, enzalutamide], in experiment [3] (CWR22PC cells), the “AR target gene FKBP5 induced by R1881” value is recorded as “inhibit”, the “AR target gene KLK3 induced by R1881” value is “inhibit”, the “AR target gene KLK4 induced by R1881” value is “inhibit” and the “AR target gene NKX3.1 induced by R1881” value is recorded as “inhibit”. Moreover, in experiment [3] (LNCaP cells), the “AR target gene FKBP5 induced by R1881” value is “inhibit”, the “AR target gene KLK3 induced by R1881” value was “inhibit”, the “AR target gene KLK4 induced by R1881” value is listed as “inhibit” and the “AR target gene NKX3.1 induced by R1881” value is “inhibit”.

On to `C[C@]1(O)CC[C@H]2[C@@H]3CCC4=CC(=O)CCC4=C3C=C[C@@]21C` [Compound R1881], for which the PSA secretion result in the experiment on PSA (CWR22PC cells, 0.1 nM R1881 without or with 1 µM ARD1 or ARD2, day 22) is reported as “promotes”. Further, the CWR22PC cell growth result in the experiment with CWR22PC cells (0.1 nM R1881 without or with 1 µM ARD1 or ARD2, 22 days) is given as “promotes”.
